Reference: article PMC8550792, “Evolution of kinase polypharmacology across HSP90 drug discovery” (Cell Chemical Biology, 2021)

What was measured:
Assay in all cases: biochemical
Assay type in all cases: biochemical
[1] = target: T1, 382 unique human kinases (Homo sapiens, UniProt P08581); details: kinase c-MET, compound 10 uM; for remaining activity at 10 µM: read-out: % Enzyme Activity (relative to DMSO controls)
T1 construct: purchased Reaction Biology (HotSpot contract assay)

[2] = target: T2, 382 unique human kinases (Homo sapiens, UniProt P10721, V654A); details: kinase c-Kit (V654A), compound 10 uM; for remaining activity at 10 µM: read-out: % Enzyme Activity (relative to DMSO controls)
T2 construct: purchased Reaction Biology (HotSpot contract assay)

[3] = target: T3, 382 unique human kinases (Homo sapiens, UniProt Q9UM73); details: ALK, 10 uM; for remaining activity at 10 µM: read-out: % Enzyme Activity (relative to DMSO controls)
T3 construct: purchased Reaction Biology (HotSpot contract assay)

[4] = target: T4, 382 unique human kinases (Homo sapiens, UniProt O43293); details: kinase ZIPK/DAPK3, compound 10 uM; for remaining activity at 10 µM: read-out: % Enzyme Activity (relative to DMSO controls)
T4 construct: purchased Reaction Biology (HotSpot contract assay)

[5] = target: T5, 382 unique human kinases (Homo sapiens, UniProt P53778); details: P38g, compound at 10 uM, duplicate values; for remaining activity at 10 µM: read-out: % Enzyme Activity (relative to DMSO controls)
T5 construct: purchased Reaction Biology (HotSpot contract assay)
T5 sequence (P53778 1-367): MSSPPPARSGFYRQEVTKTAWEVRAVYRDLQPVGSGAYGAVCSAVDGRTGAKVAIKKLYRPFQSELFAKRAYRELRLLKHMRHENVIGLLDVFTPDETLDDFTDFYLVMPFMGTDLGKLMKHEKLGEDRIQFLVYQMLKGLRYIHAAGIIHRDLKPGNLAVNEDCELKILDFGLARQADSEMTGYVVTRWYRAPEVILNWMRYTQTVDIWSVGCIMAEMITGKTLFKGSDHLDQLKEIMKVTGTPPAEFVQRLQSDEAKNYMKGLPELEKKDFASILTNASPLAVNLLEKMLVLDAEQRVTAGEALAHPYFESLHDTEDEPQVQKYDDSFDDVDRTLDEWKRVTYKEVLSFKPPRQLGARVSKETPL

[6] = target: T6, 382 unique human kinases (Homo sapiens, UniProt P10721, T670I/V559D); details: c-Kit (V559D/T670I), 10 uM; for remaining activity at 10 µM: read-out: % Enzyme Activity (relative to DMSO controls)
T6 construct: purchased Reaction Biology (HotSpot contract assay)

[7] = target: T7, 382 unique human kinases (Homo sapiens, UniProt P53671); details: LIMK2, [ATP] 5 µM, compound 10 uM; for remaining activity at 10 µM: read-out: % Enzyme Activity (relative to DMSO controls)
T7 construct: purchased Reaction Biology (HotSpot contract assay)

[8] = target: T8, 382 unique human kinases (Homo sapiens, UniProt P08581, V1092I); details: c-MET (V1092I), 10 uM; for remaining activity at 10 µM: read-out: % Enzyme Activity (relative to DMSO controls)
T8 construct: purchased Reaction Biology (HotSpot contract assay)

[9] = target: T9, 382 unique human kinases (Homo sapiens, UniProt Q9HC98); details: NEK6, 10 uM; for remaining activity at 10 µM: read-out: % Enzyme Activity (relative to DMSO controls)
T9 construct: purchased Reaction Biology (HotSpot contract assay)

[10] = target: T10, 382 unique human kinases (Homo sapiens, UniProt P42681); details: TXK, [ATP] 30 µM, compound 10 uM; for remaining activity at 10 µM: read-out: % Enzyme Activity (relative to DMSO controls)
T10 construct: purchased Reaction Biology (HotSpot contract assay)
T10 sequence (P42681 1-527): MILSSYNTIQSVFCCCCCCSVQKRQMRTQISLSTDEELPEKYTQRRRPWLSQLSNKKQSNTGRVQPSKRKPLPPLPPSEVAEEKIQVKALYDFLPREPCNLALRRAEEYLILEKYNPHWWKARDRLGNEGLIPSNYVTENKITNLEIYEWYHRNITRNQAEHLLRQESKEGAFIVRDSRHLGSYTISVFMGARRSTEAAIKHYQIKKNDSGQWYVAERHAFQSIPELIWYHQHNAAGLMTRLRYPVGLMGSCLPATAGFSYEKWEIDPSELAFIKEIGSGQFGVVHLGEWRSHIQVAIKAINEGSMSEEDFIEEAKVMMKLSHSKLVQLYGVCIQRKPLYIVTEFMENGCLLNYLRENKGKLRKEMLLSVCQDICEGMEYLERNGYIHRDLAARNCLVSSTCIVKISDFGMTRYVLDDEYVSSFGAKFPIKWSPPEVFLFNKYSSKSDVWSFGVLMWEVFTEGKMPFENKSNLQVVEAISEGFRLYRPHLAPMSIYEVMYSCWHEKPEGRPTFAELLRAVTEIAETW

[11] = target: T11, 382 unique human kinases (Homo sapiens, UniProt P54753); details: EPHB3, 10 uM; for remaining activity at 10 µM: read-out: % Enzyme Activity (relative to DMSO controls)
T11 construct: purchased Reaction Biology (HotSpot contract assay)
T11 sequence (P54753 34-998): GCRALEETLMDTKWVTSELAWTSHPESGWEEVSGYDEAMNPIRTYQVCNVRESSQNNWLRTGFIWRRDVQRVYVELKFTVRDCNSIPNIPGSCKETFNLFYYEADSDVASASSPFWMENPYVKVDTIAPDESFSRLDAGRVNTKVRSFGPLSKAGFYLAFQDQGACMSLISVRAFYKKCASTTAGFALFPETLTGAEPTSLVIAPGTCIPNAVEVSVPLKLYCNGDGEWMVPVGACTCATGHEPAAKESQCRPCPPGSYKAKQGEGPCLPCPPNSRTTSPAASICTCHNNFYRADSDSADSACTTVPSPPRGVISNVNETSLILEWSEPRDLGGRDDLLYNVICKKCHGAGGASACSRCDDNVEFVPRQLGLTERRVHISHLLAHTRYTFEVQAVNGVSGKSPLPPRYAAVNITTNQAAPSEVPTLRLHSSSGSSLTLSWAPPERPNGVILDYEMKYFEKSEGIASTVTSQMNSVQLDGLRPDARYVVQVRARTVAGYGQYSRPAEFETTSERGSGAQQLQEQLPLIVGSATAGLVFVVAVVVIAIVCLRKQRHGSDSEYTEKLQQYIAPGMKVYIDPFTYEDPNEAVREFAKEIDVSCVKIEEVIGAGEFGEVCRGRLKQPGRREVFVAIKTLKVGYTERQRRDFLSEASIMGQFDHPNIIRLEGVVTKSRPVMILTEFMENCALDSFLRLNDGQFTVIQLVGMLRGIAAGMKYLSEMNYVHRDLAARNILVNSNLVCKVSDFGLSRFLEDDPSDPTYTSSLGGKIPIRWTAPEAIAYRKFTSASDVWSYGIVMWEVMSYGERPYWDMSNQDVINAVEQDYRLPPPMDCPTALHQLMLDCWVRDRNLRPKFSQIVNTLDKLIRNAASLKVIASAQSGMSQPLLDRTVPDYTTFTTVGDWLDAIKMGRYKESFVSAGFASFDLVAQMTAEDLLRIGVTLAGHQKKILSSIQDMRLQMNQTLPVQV

T9 sequence (Q9HC98 whole entry): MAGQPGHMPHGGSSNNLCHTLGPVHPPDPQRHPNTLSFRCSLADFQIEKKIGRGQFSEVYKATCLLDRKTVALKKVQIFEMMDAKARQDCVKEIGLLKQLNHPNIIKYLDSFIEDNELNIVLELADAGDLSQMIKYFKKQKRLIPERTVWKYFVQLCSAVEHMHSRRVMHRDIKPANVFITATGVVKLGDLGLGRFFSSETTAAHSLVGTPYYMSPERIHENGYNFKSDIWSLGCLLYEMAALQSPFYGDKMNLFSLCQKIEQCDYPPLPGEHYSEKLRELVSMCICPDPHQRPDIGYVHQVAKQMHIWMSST
T7 sequence (P53671 whole entry): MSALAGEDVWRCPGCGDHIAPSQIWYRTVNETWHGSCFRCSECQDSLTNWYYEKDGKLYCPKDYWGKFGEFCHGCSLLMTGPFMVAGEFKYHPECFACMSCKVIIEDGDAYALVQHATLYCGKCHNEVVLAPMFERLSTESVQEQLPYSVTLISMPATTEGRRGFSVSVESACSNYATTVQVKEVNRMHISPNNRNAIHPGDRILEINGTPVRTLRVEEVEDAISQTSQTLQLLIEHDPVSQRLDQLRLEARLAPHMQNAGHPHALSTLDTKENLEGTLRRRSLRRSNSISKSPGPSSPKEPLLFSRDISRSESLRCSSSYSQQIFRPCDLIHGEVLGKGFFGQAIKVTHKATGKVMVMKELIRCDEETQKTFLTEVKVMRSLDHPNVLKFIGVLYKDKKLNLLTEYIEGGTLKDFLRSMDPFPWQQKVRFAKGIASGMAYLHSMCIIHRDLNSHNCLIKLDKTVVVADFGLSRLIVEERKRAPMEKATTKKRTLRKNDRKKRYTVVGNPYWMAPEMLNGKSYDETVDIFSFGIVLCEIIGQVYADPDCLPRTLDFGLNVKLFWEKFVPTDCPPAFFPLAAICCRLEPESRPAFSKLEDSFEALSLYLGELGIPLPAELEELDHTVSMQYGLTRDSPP
T6 sequence (P10721 26-976 V559D/T670I): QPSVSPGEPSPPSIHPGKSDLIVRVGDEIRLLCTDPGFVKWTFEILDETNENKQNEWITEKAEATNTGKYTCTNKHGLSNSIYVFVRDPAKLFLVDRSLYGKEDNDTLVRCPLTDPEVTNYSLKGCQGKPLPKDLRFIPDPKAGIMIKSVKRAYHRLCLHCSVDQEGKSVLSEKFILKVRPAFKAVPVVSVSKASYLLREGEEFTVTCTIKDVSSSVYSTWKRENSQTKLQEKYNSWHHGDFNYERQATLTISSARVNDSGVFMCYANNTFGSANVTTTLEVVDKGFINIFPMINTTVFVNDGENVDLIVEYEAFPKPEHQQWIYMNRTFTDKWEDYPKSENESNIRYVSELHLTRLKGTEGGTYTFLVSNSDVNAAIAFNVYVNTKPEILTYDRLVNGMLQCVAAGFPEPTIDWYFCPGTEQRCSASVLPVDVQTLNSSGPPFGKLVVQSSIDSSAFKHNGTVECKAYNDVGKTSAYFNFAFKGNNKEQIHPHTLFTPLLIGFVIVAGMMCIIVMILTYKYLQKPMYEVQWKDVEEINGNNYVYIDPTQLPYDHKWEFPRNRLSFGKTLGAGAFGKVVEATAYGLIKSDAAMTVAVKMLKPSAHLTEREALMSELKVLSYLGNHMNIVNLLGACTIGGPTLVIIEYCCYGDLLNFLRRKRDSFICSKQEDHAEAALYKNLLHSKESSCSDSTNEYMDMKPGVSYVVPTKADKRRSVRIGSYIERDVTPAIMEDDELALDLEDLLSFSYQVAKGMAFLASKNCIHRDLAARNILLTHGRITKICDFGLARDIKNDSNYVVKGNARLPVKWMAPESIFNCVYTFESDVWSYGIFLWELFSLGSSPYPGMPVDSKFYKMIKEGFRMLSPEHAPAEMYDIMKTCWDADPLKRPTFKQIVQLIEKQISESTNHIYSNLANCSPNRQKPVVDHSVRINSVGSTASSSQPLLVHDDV
T2 sequence (P10721 26-976 V654A): as the sequence (P10721 26-976 V559D/T670I) above, with D534V, V629A, I645T counted along it
T3 sequence (Q9UM73 19-1620): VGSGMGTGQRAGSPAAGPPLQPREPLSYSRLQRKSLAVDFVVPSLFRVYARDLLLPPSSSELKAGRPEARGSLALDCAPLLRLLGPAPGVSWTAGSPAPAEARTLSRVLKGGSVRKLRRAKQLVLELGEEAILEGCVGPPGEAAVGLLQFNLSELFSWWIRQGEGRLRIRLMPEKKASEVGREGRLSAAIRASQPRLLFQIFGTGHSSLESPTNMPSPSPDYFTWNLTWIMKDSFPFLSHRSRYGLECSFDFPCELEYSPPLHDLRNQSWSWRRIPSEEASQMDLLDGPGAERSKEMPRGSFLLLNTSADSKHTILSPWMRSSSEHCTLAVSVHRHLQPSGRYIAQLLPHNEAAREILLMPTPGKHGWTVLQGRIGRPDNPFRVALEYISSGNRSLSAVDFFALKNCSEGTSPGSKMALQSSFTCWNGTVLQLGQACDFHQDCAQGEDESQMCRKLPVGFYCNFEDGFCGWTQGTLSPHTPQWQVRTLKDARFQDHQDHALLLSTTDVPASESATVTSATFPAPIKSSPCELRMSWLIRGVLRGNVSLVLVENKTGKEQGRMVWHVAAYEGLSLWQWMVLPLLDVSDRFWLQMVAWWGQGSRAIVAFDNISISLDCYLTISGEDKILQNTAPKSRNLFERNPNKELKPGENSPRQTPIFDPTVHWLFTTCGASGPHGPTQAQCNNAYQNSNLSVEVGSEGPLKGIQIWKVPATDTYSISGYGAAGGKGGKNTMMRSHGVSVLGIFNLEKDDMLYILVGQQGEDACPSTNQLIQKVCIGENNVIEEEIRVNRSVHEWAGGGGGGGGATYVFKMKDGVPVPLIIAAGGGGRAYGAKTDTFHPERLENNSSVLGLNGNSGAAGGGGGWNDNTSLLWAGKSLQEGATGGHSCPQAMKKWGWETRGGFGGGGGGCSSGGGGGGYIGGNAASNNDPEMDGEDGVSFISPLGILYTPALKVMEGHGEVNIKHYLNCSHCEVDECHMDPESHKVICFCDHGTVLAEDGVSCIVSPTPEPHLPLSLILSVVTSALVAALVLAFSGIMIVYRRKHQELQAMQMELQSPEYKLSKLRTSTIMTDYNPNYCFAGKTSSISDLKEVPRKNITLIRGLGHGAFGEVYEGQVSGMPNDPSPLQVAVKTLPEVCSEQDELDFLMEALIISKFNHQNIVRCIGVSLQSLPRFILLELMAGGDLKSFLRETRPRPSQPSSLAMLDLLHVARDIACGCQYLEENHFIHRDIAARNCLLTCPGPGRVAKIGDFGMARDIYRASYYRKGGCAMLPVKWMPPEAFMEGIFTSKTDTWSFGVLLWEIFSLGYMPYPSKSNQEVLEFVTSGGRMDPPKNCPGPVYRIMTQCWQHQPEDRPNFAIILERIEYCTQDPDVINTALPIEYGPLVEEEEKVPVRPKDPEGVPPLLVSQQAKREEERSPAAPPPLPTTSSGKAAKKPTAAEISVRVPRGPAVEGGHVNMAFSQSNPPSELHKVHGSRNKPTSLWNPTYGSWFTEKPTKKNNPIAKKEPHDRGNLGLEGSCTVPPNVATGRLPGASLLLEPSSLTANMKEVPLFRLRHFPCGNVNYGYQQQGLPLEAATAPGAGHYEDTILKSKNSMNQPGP
T4 sequence (O43293 whole entry): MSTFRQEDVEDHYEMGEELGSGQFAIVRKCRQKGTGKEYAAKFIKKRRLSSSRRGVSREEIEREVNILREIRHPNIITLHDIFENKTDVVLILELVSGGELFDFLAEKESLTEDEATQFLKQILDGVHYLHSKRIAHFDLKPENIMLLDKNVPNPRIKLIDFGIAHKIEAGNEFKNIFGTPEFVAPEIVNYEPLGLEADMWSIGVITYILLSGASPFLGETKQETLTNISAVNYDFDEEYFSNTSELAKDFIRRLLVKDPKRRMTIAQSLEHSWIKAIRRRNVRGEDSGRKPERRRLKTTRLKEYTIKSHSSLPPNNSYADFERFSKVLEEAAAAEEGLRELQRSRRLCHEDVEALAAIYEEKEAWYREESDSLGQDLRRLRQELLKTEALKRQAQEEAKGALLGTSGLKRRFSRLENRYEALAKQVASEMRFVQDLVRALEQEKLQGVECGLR

Compound: CC(C)c1cc(-c2n[nH]c(=O)n2-c2ccc3c(ccn3C)c2)c(O)cc1O [Ganetespib (STA9090)]
- remaining activity at 10 µM [1]: 82.2%
- remaining activity at 10 µM [2]: 81.4%
- remaining activity at 10 µM [3]: 67.5%
- remaining activity at 10 µM [4]: 89.8%
- remaining activity at 10 µM [5]: 119%
- remaining activity at 10 µM [6]: 67.9%

Compound: CCNC(=O)c1noc(-c2cc(C(C)C)c(O)cc2O)c1-c1ccc(CN2CCOCC2)cc1 [Luminespib]
- % Enzyme Activity (relative to DMSO controls) [7]: 100.64%
- remaining activity at 10 µM [7]: 101%
- % Enzyme Activity (relative to DMSO controls) [8]: 95.91%
- remaining activity at 10 µM [8]: 97.2%
- % Enzyme Activity (relative to DMSO controls) [9]: 94.17%
- remaining activity at 10 µM [9]: 95.4%
- % Enzyme Activity (relative to DMSO controls) [10]: 87.82%
- remaining activity at 10 µM [10]: 88.1%
- % Enzyme Activity (relative to DMSO controls) [11]: 94.58%
- remaining activity at 10 µM [11]: 95.5%

Compound: CCNC(=O)c1noc(-c2cc(C(C)C)c(O)cc2O)c1-c1ccc(CN2CCOCC2)cc1 [Luminespib (AUY-922)]
- % Enzyme Activity (relative to DMSO controls) [1]: 99.56%
- remaining activity at 10 µM [1]: 105%
- % Enzyme Activity (relative to DMSO controls) [2]: 85.21%
- remaining activity at 10 µM [2]: 85.8%
- % Enzyme Activity (relative to DMSO controls) [3]: 95.41%
- remaining activity at 10 µM [3]: 97.2%
- % Enzyme Activity (relative to DMSO controls) [4]: 97.96%
- remaining activity at 10 µM [4]: 98.6%
- % Enzyme Activity (relative to DMSO controls) [5]: 104.66%
- remaining activity at 10 µM [5]: 106%
- % Enzyme Activity (relative to DMSO controls) [6]: 91.06%
- remaining activity at 10 µM [6]: 91.5%

Compound: CC(C)c1cc(-c2n[nH]c(=O)n2-c2ccc3c(ccn3C)c2)c(O)cc1O [Ganetespib]
- remaining activity at 10 µM [7]: 46.7%
- remaining activity at 10 µM [8]: 98.3%
- remaining activity at 10 µM [9]: 107%
- remaining activity at 10 µM [10]: 21.4%
- remaining activity at 10 µM [11]: 94.5%
